# Article PMC6263664 (CPT: Pharmacometrics & Systems Pharmacology, 2018)
# “And” between values parts separate entries of the source, which are not always exact repeats. Equal entries are not always repeated. Where two headings read alike, the source gives them in different places. Marks after values point to notes of the source that are not given here.
# What was measured:
# [1] = Updated stage 1 / stage 2 population pharmacokinetic analysis; format: in vivo, human; details: for ACS subjects (θ13) effect on Vc/F, Estimate ± SE / Evening dosing (AM/PM = 2) (θ10) effect on ka, Estimate ± SE / NVAF subjects (θ12) effect on Vc/F, Estimate ± SE: fractional change; for Vd/F: Vc/F (θ3) apparent volume of distribution of the central compartment, Estimate ± SE; for D_WTB (θ11) baseline body weight effect on Vc/F, Estimate ± SE: power coefficient
# [2] = format: in vivo, human
# [3] = cited from earlier work
# [4] = vs normal renal function, phase I; cited from earlier work
# [5] = cited from earlier work; remark: listed apart in the source
# P‐glycoprotein (P‐gp) = details: cited from earlier work
# [6] = test system: breast cancer resistance protein; details: cited from earlier work
# [7] = test system: cytochrome P450 3A4 (CYP3A4); details: cited from earlier work
# [8] = relative to the typical 70‐kg NVAF subject
# [9] = fractional change, stage 2 final ad hoc model
# [10] = power coefficient, stage 2 final ad hoc model
# [11] = relative to non‐Asian typical patients with NVAF
structure (smiles),measurement,setting,value
COc1ccc(-n2nc(C(N)=O)c3c2C(=O)N(c2ccc(N4CCCCC4=O)cc2)CC3)cc1 [apixaban],"predicted increase in AUCss, moderate renal impairment","[1]; NVAF, cCrCL 40 mL/minute, compared with normal renal function",28%
same,"predicted increase in AUCss, mild renal impairment","[1]; NVAF, cCrCL = 65 mL/minute, compared with normal renal function",9%
same,increase in exposure with strong/moderate inhibitors of both CYP3A4 and P‐gp,[1]; PPK estimate,~ 17%
same,"CLR/F (θ2) apparent renal clearance, Estimate ± SE","[1]; cCrCL reference 80 mL/minute, stage 2 final model",1.57 ± 0.117 L/h
same,"reduced CL/F, ACS",[1]; compared with healthy subjects,21.5%
same,"reduced CL/F, Asian race",[1]; compared with non‐Asian subjects,11.9%
same,"ACS subjects (θ13) effect on Vc/F, Estimate ± SE",[1]; stage 2 final model,−0.180 ± 0.0446
same,"Evening dosing (AM/PM = 2) (θ10) effect on ka, Estimate ± SE",[1]; stage 2 final model,−0.433 ± 0.0236
same,"NVAF subjects (θ12) effect on Vc/F, Estimate ± SE",[1]; stage 2 final model,−0.0405 ± 0.0491
same,"ACS subjects (θ13) effect on Vc/F, Estimate ± SE",[1]; updated stage 1 final model,−0.177 ± 0.0449
same,"Evening dosing (AM/PM = 2) (θ10) effect on ka, Estimate ± SE",[1]; updated stage 1 final model,−0.434 ± 0.0234
same,"NVAF subjects (θ12) effect on Vc/F, Estimate ± SE",[1]; updated stage 1 final model,−0.0217 ± 0.0501
same,effect of strong CYP3A4/P‐gp inducers on CL/F,"[1]; full stage 2 model, not included in final model",very small and poorly estimated
same,CL renal,"[1]; human, plasma, oral",26.2 mL/min
same,Vd/F,"[1]; human, plasma, oral, stage 2 final model",30 ± 0.971 L
same,Vd/F,"[1]; human, plasma, oral, updated stage 1 final model",29.8 ± 0.981 L
same,impact of Asian race on exposure,[1]; in vivo,< 15%
same,"D_WTB (θ11) baseline body weight effect on Vc/F, Estimate ± SE",[1]; stage 2 final model,0.790 ± 0.0645
same,"D_WTB (θ11) baseline body weight effect on Vc/F, Estimate ± SE",[1]; updated stage 1 final model,0.806 ± 0.0649
same,decrease in ka with administration in the evening,[1]; relative to administration in the morning or afternoon,43%
same,increase in Vc/F for a 90‐kg subject,[1]; [8],22%
same,reduction in Vc/F for a 50‐kg subject,[1]; [8],23.3%
same,"Logit for reduction in Frel at 50 mg (I50) (θ9), Estimate ± SE",[1]; stage 2 final model,−0.322 ± 0.0512
same,"Shape parameter for Frel (γ) (θ8), Estimate ± SE",[1]; stage 2 final model,0.857 ± 0.0684
same,"Vp/F (θ5) apparent volume of distribution of the peripheral compartment, Estimate ± SE",[1]; stage 2 final model,27.0 ± 2.03 L
same,"ka (θ1) absorption rate constant, Estimate ± SE",[1]; stage 2 final model,0.473 ± 0.0208 h⁻¹
same,"Logit for reduction in Frel at 50 mg (I50) (θ9), Estimate ± SE",[1]; updated stage 1 final model,−0.321 ± 0.0512
same,"Shape parameter for Frel (γ) (θ8), Estimate ± SE",[1]; updated stage 1 final model,0.853 ± 0.0693
same,"Vp/F (θ5) apparent volume of distribution of the peripheral compartment, Estimate ± SE",[1]; updated stage 1 final model,26.7 ± 1.89 L
same,"ka (θ1) absorption rate constant, Estimate ± SE",[1]; updated stage 1 final model,0.471 ± 0.0204 h⁻¹
same,change in exposure due to individual covariate (demographic) effects,"[1]; vs the reference NVAF subject, except severe renal impairment",< 25% and ≤ 25%
same,"ACS subjects (θ13) effect on Vc/F, Estimate ± SE",[2]; [9],−0.184 ± 0.0463
same,"Evening dosing (AM/PM = 2) (θ10) effect on ka, Estimate ± SE",[2]; [9],−0.436 ± 0.0237
same,"Female (θ15) effect on CLNR/F, Estimate ± SE",[2]; [9],−0.227 ± 0.0269
same,"NVAF subjects (θ12) effect on Vc/F, Estimate ± SE",[2]; [9],−0.0530 ± 0.0508
same,CL renal,"[2]; human, plasma, oral",26.7 mL/min
same,Vd/F,"[2]; human, plasma, oral",30 ± 1.04 L
same,"Age (θ14) effect on CLNR/F, Estimate ± SE",[2]; [10],−0.414 ± 0.0727
same,"D_WTB (θ11) baseline body weight effect on Vc/F, Estimate ± SE",[2]; [10],0.792 ± 0.0648
same,CL/F higher in Korean subjects,[2]; relative to non‐Asian subjects,3.3%
same,CL/F lower in Japanese subjects,[2]; relative to non‐Asian subjects,15.1%
same,CL/F lower in other Asian subjects,[2]; relative to non‐Asian subjects,4.3%
same,"change in daily AUCss, Japanese",[2]; [11],17.7%
same,"change in daily AUCss, Korean",[2]; [11],−3.2%
same,"change in daily AUCss, other Asian races",[2]; [11],4.5%
same,"change in population mean total CL/F, Japanese",[2]; [11],−15.1%
same,"change in population mean total CL/F, Korean",[2]; [11],3.3%
same,"change in population mean total CL/F, other Asian races",[2]; [11],−4.3%
same,CL/F apparent total clearance,"[2]; simple sum of CLR/F and CLNR/F, stage 2 final ad hoc model",3.62 ^a L/hour
same,"Logit for reduction in Frel at 50 mg (I50) (θ9), Estimate ± SE",[2]; stage 2 final ad hoc model,−0.327 ± 0.0519
same,"Shape parameter for Frel (γ) (θ8), Estimate ± SE",[2]; stage 2 final ad hoc model,0.875 ± 0.0779
same,"Vp/F (θ5) apparent volume of distribution of the peripheral compartment, Estimate ± SE",[2]; stage 2 final ad hoc model,27.3 ± 2.78 L
same,"ka (θ1) absorption rate constant, Estimate ± SE",[2]; stage 2 final ad hoc model,0.471 ± 0.0218 h⁻¹
same,oral bioavailability,[3],~ 50%
same,steady‐state volume of distribution,[3],~ 21 liters
same,time dependency of pharmacokinetics,[3],no time dependency
same,total clearance,[3],3.3 L/h
same,Renal clearance as share of total systemic clearance,"[3]; following intravenous administration, healthy subjects",~ 27%
same,half‐life,[3]; following oral administration,~ 12 hours
same,dose dependence of exposure,[3]; therapeutic dose range (2.5–10 mg),dose‐proportional increase in exposure
same,"higher estimated AUCINF, mild renal impairment",[4],~ 16%
same,"higher estimated AUCINF, moderate renal impairment",[4],~29%
same,"higher estimated AUCINF, severe renal impairment",[4],~44%
same,increase in AUC when co‐administered with diltiazem,"[5]; diltiazem, a moderate CYP3A4/P‐gp inhibitor",40%
same,increase in AUC when co‐administered with ketoconazole,"[5]; ketoconazole, a strong CYP3A4/P‐gp inhibitor",99%
same,substrate status,P‐glycoprotein (P‐gp),substrate
same,substrate status,[6],substrate
same,pathway of plasma elimination,[7],metabolism primarily by cytochrome P450 3A4 (CYP3A4)
